These results are taken from patent publication US20220196635A1, “Fibrosis Assay” (Georgia Tech Research Corporation, priority 2020, published 2022).

In assay [1] the test system is NHLF cells and diseased IPF cells (primary human lung fibroblasts) in fibrin scaffold. Put plainly: Microscale cell-mediated fibrinolysis assay (ATPS-printed fibroblast-laden fibrin scaffolds, brightfield pixel intensity). The format is cell-based. The note with it: for impact on fibroblast-mediated fibrinolysis: 400 μM pirfenidone, 0.4 μM nintedanib, 20 μM diethyl-pythiDC, NHLF and IPF cells; for rate of cell-mediated fibrinolysis (50% degradation time): 100 μM hydrogen peroxide. The procedure: A stock solution of DEX (20% w/w dextran T500; Sigma) was prepared in phosphate buffered saline (PBS) on a rocker overnight. A stock solution of PEG (6% w/w, 35 k MW; Sigma) was prepared in fully supplemented culture media with 10% deionized water to balance osmolality. Both stock solutions were passed through a 0.22 um sterilizing syringe filter before storage. PEG working solutions were stored for up to 2 weeks at 4° C. Thrombin (Human Alpha Thrombin; Enzyme Research Labs) was also added to the PEG solution at a concentration of 0.1 U/mL immediately preceding experiments. Fibrinogen-DEX solutions were prepared by diluting fibrinogen stock solution (human fibrinogen 3; Enzyme Research Labs) to a final concentration of 4 mg/mL in a sterile solution of 4% 10×DMEM, 15% DEX stock solution (to a final concentration of 3% dextran), and 50% cell suspension in growth media. For all experiments excluding cell concentration evaluation, the cell suspension was diluted for 1000 cells per microliter in the final fibrinogen-DEX solution.
Normal human lung fibroblasts (NHLF lot #0000580583; […] Cells were passaged at 80-90% confluence and were sub-cultured in 1:3 ratios by trypsinization. When at the desired confluence, cells were washed with PBS and 0.05% trypsin solution was added to the flask. Cells were incubated for 2 min, diluted with fibroblast growth media, and then harvested and centrifuged (200× g, 5 min) in a conical tube. The supernatant was aspirated and the cell pellet was re-suspended in serum-free culture media. When used in fibrin degradation experiments, cells were re-suspended at 2× the final desired concentration (1000 cells/ul unless otherwise indicated). All experiments were conducted with cells at or below passage 12. In all experiments, media was changed every 48 hours and any media additives (plasminogen, TGF-β1, drugs, etc.) were included.
Working solutions of PEG with 0.1 U/mL of thrombin were warmed to 37° C. and pipetted into a 96-well plate. For production of droplets, fibrinogen-DEX solutions with cell suspension were maintained at 37° C. and pipetted directly into the PEG-thrombin media using either a manual pipette or a semi-automated 96-channel pipette (Viaflo-96; Integra). All assays utilized a volume of 1 μl unless otherwise noted. Following dispensing of the DEX phase, the plates were placed in an incubator at 37° C. for 30 min to allow the thrombin to enzymatically crosslink the fibrinogen into a fibrin matrix (FIG. 1A). The PEG-enriched media was then washed four times by removing, then replacing half of the media with PEG-free media. When applicable, the final media addition was supplemented with stimuli as detailed in Example 5 below. For the duration of each experiment, assay plates were imaged every 2 hours at 4× with an automated cell culture monitoring system (Incucyte S3; Essen Biosystems). After one day of culture, plasminogen (50 μg/mL) (Human Glu-Plasminogen; Enzyme Research Labs) was added as a 10× concentrated solution to each well in order to initiate assay degradation (FIG. 1B), unless otherwise noted for specific conditions. Fresh plasminogen was included with each subsequent media addition. Positive controls with active plasmin (1 U/ml) (Human Plasmin; Enzyme Research Labs) and negative controls without plasminogen were included in each experiment. As cells activated plasminogen, the fibrin scaffold progressively degraded as illustrated in FIG. 1C.
After each experiment, brightfield images for every time point were downloaded in jpeg format from the automated cell culture monitoring system. Python's OpenCV library was implemented for the masking approach illustrated in FIG. 2A. First, a threshold was set at 50% of the maximum intensity (128 for 8-bit integer pixel values) in order to isolate the darker pixels of semi-opaque fibrin hydrogel from the background of the image. A closing morphological filter with a 25×25 kernel was then applied to each mask in order to remove noise. […]

The test system of assay [2] is human primary lung fibroblasts (NHLF, IPF) in fibrin micro-scaffolds. Kind of assay: Contracting scar-in-a-drop fibroplasia assay (final projected area of cell-ECM spheroids). Format: cell-based. Here is the method:
Human primary lung fibroblasts were used in all experiments presented in this paper. Unless otherwise noted, experiments utilized normal human lung fibroblasts (NHLF B lot #0000580583; Lonza) from a person with a history of smoking. For experiments evaluating donor variability, the following cells were utilized: NHLF A (NHLF lot #0000608197; Lonza) from a person, IPF A (IPF lot #0000627840; Lonza) from a person, and IPF B (IPF lot #6F5002; Lonza) from a person. All cells were cultured in fibroblast growth media (FGM; Lonza). Cells were passaged at 80-90% confluence and were sub-cultured in 1:3 ratios by trypsinization. When at the desired confluence, cells were washed with PBS and 0.05% trypsin solution was added to the flask. Cells were incubated for 2 min, and then harvested and centrifuged ([…], 5 min) in a conical tube. The supernatant was aspirated and the cell pellet was re-suspended in FBS-free culture media. When used in fibrin degradation experiments, cells were re-suspended at 2× the final desired concentration (2500 cells/ul unless otherwise indicated). To promote collagen production and contraction in addition to fibrin degradation, serum (bovine or human) were added at 2% or higher up to about 10%. Higher cell densities (about 2500 cells/ul and higher up to about 10,000 cells/ul) also promote collagen production. All experiments were conducted with cells at or below passage 8 except for high passage experiments conducted at passage 12. In all experiments, media was changed every 48 hours and any media additives (plasminogen, TGF-β1, drugs, etc.,) were included.
ATPS printing of fibrin micro-scaffolds has previously described above. Briefly, working solutions of PEG with 0.1 U/mL of thrombin were warmed to 37° C. and pipetted into a 96-well plate. For production of droplets, fibrinogen-DEX solutions with cell suspension were maintained at 37° C. and 4 μl per assay (unless otherwise noted) was pipetted directly into the PEG-thrombin media using a semi-automated repeater pipette (Repeater E3X; Eppendorf). Following dispensing of the DEX phase, the plates were placed in an ambient air incubator at 37° C. for 30 min to allow the thrombin to enzymatically crosslink the fibrinogen into a fibrin matrix (FIG. 6A). The PEG-enriched media was removed using a 12-channel micropipette and replaced with 100 μl of fully supplemented media in each well. When applicable, this media addition was supplemented with stimuli as detailed in example 17 below. For the duration of each experiment, assay plates were imaged every 2 hours at 4× with an automated cell culture monitoring system (Incucyte S3; Sartorius). As the assay proceeded, the fibroblasts progressively remodeled the fibrin scaffold as illustrated in FIG. 6C.
After each experiment, the final projected areas of the cell-ECM spheroids were determined from brightfield images taken at the final time point using a benchtop imaging system (2× objective; EVOS M7000; ThermoFisher). These images were then segmented through a process of pixel classification, thresholding, and morphological filtering in order to isolate the cell-ECM construct area from the background.
Pixel classification implemented Ilastic, a freely available image classification tool developed by the European Molecular Biology Laboratory. Ilastik's pixel classification utility implements a random forest classifier for quick and robust segmentation. In order to train the classifier, 10 characteristic images were selected to include different stages of ECM remodeling. In this step, each individual pixel is assigned a probability for belonging to layers for the background or the cell-ECM construct. Ilastik enables interactive training of the random forest classifier via user annotations of the training images. […]

Setting [3] is: TGF-β1 treated (2 ng/mL), NHLF and IPF cells, 10 μM TM5275, 500 μM pirfenidone.

For `CCOC(=O)c1ccc(-c2ncc(C(=O)OCC)s2)nc1` [diethyl-pythiDC], in assay [1], the “impact on fibroblast-mediated fibrinolysis” value (“impact” below) was “significantly (P<0.05) delayed fibrinolysis”.
`COC(=O)c1ccc2c(c1)NC(=O)/C2=C(\Nc1ccc(N(C)C(=O)CN2CCN(C)CC2)cc1)c1ccccc1` [nintedanib]: the “impact” value in assay [1] is recorded as “did not show a significant impact on fibrinolysis”. In addition, the “final area of spheroids” value in assay [2] (all conditions (with and without TGF-β1; NHLF and IPF cells), 1 μM nintedanib) is recorded as “significant decreases in final area for all conditions”. Besides, the “final projected area, fibroblast donor variability” value in assay [2] (nintedanib, 2 normal and 2 IPF donors, one IPF donor not statistically significant (p<0.3)) is on record as “reduced the final projected area”.
For the molecule `O=C(COCC(=O)N1CCN(C(c2ccccc2)c2ccccc2)CC1)Nc1ccc(Cl)cc1C(=O)O` [TM5275], the “final area of spheroids” value in assay [2] (setting [3]) is reported as “decreased the spheroid area”. Further, the spheroid area entry in assay [2] (conditions that omitted TGF-β1, 10 μM TM5275) is “not in conditions that omitted TGF-β1”.
Consider `OO` [hydrogen peroxide], for which the “rate of cell-mediated fibrinolysis (50% degradation time)” value in assay [1] (conditions that included TGF-β1 (2 ng/ml)) was “no significant difference”; in assay [1] (no TGF-β1), “highly significant decreases in the rates of fibrinolysis”.
For the molecule `Cc1ccc(=O)n(-c2ccccc2)c1` [pirfenidone], the “impact” value in assay [1] is given as “did not show a significant impact on fibrinolysis”. In addition, in assay [2] (setting [3]), the “final area of spheroids” value is “significant decrease in final area”.

B1: plasmin: Human Plasmin (Enzyme Research Labs), positive control for fibrin degradation (protein, UniProt P00747 20-580; P00747 581-810, looked up)
Plasmin heavy chain A: EPLDDYVNTQGASLFSVTKKQLGAGSIEECAAKCEEDEEFTCRAFQYHSKEQQCVIMAENRKSSIIIRMRDVVLFEKKVYLSECKTGNGKNYRGTMSKTKNGITCQKWSSTSPHRPRFSPATHPSEGLEENYCRNPDNDPQGPWCYTTDPEKRYDYCDILECEEECMHCSGENYDGKISKTMSGLECQAWDSQSPHAHGYIPSKFPNKNLKKNYCRNPDRELRPWCFTTDPNKRWELCDIPRCTTPPPSSGPTYQCLKGTGENYRGNVAVTVSGHTCQHWSAQTPHTHNRTPENFPCKNLDENYCRNPDGKRAPWCHTTNSQVRWEYCKIPSCDSSPVSTEQLAPTAPPELTPVVQDCYHGDGQSYRGTSSTTTTGKKCQSWSSMTPHRHQKTPENYPNAGLTMNYCRNPDADKGPWCFTTDPSVRWEYCNLKKCSGTEASVVAPPPVVLLPDVETPSEEDCMFGNGKGYRGKRATTVTGTPCQDWAAQEPHRHSIFTPETNPRAGLEKNYCRNPDGDVGGPWCYTTNPRKLYDYCDVPQCAAPSFDCGKPQVEPKKCPGR
Plasmin light chain B: VVGGCVAHPHSWPWQVSLRTRFGMHFCGGTLISPEWVLTAAHCLEKSPRPSSYKVILGAHQEVNLEPHVQEIEVSRLFLEPTRKDIALLKLSSPAVITDKVIPACLPSPNYVVADRTECFITGWGETQGTFGAGLLKEAQLPVIENKVCNRYEFLNGRVQSTELCAGHLAGGTDSCQGDSGGPLVCFEKDKYILQGVTSWGLGCARPNKPGVYVRVSRFVTWIEGVMRNN
modifications: Plasmin
notes: Human Plasmin (Enzyme Research Labs), positive control for fibrin degradation
Take B1: the “matrix degradation, positive control” value in assay [1] (exogenous plasmin 1 U/ml) was “rapid matrix degradation”.
